Experimental findings from ChEMBL document CHEMBL1201862, “PubChem BioAssay data set” (2004) are described below.

Test systems include A498; A549; HCT-116; IGROV-1; NCI-H23; OVCAR-3; OVCAR-5; SF-295; SK-MEL-28; SW-620; TK-10; U-251; HCT-15; NCI-H226; SNB-19; UACC-62.
Holding throughout (experiment): inhibition of tumour cell growth, NCI panel, 48 h

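Assay format: 96-well plates, 48-hour exposure. Abbreviation: GI50, concentration required for 50% inhibition of growth.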 The source made the active and inactive calls. No stated cut-off is given here; in the data, active = GI50 up to about 1.1 µM and inactive = higher. Bounds are passed on as bounds.

As to `COc1ccc2c(c1)C1C(CO2)C(c2ccccc2)=NN1c1ccccc1` (stereo not given), the GI50 with A498, with A549, in the assay on HCT-116, in the assay on IGROV-1, with NCI-H23 and in the assay on OVCAR-3 was > 100 µM (inactive) throughout. The GI50 in the assay on OVCAR-5 was > 100 µM (inactive); with SF-295 it was > 100 µM (inactive); in the assay with SK-MEL-28, 70.3 µM (inactive); with SW-620 it was > 100 µM (inactive); with TK-10 it was > 100 µM (inactive); with U-251 it was > 100 µM (inactive).
In the case of `O=S(=O)(c1ccccc1)C1CN2OC1(S(=O)(=O)c1ccccc1)CC21CCCCC1` (stereo not given), the GI50 with A549 is > 100 µM (inactive); in the assay on HCT-116 it was > 100 µM (inactive); in the assay on HCT-15, over 100 µM; with IGROV-1, > 100 µM (inactive); in the assay on NCI-H226 it was > 100 µM (inactive); with NCI-H23 it was > 100 µM (inactive). Moreover, the GI50 with OVCAR-3, in the assay on OVCAR-5, in the assay with SF-295, in the assay with SK-MEL-28, in the assay with SNB-19 and with SW-620 was > 100 µM (inactive) throughout. Besides, the GI50 in the assay with TK-10, in the assay with U-251 and with UACC-62 was > 100 µM (inactive) each time.
Take `c1ccc(CN(Cn2cccn2)Cn2cccn2)nc1`: the GI50 is > 100 µM (inactive) with A498; > 100 µM (inactive) with A549; 61.5 µM (inactive) in the assay on HCT-116; over 100 µM in the assay on HCT-15; > 100 µM (inactive) with NCI-H23; > 100 µM (inactive) in the assay on OVCAR-3. Further, the GI50 in the assay on SF-295, with SK-MEL-28, in the assay on SNB-19, with SW-620, with TK-10 and with U-251 was > 100 µM (inactive) in each case. Also, in the assay on UACC-62, the GI50 is 43.8 µM (inactive).
As to `O=C1OC(c2ccc(Cl)c3ccccc23)c2ccccc21` (stereo not given), the GI50 in the assay with A498 is > 100 µM (inactive); in the assay with A549, 76.7 µM (inactive); in the assay on HCT-116, 91.2 µM (inactive); in the assay on HCT-15, 90.4 µM; in the assay with IGROV-1 it was > 100 µM (inactive); in the assay on NCI-H23 it was > 100 µM (inactive). Moreover, the GI50 in the assay with OVCAR-5 was > 100 µM (inactive); with SF-295, 70.5 µM (inactive); in the assay with SK-MEL-28, > 100 µM (inactive); in the assay on SNB-19 it was > 100 µM (inactive); in the assay with U-251, > 100 µM (inactive); in the assay with UACC-62 it was 63.2 µM (inactive).
On to `N#Cc1ccc2cc3c(cc2c1)OCO3`, for which the GI50 is 28.4 µM (inactive) in the assay on A498; 91 µM (inactive) in the assay on HCT-116; over 100 µM in the assay on HCT-15; > 100 µM (inactive) in the assay on IGROV-1; 39.4 µM (inactive) with NCI-H226; > 100 µM (inactive) in the assay with NCI-H23. Further, the GI50 was > 100 µM (inactive) in the assay on OVCAR-3; 76.6 µM (inactive) with OVCAR-5; > 100 µM (inactive) with SF-295; > 100 µM (inactive) in the assay on SK-MEL-28; 50.7 µM (inactive) in the assay on SNB-19; 80.2 µM (inactive) in the assay on U-251. In addition, the GI50 in the assay with UACC-62 was > 100 µM (inactive).
`C/C1=N\[N-]C(=O)c2ccccc2C(=O)N/N=C(\C)c2cccc1n2.O=[N+]([O-])[O-].[Zn+2]`: the GI50 is > 100 µM (inactive) with A498; > 100 µM (inactive) in the assay with A549; > 100 µM (inactive) in the assay with HCT-116; over 100 µM with HCT-15; > 100 µM (inactive) in the assay on IGROV-1; > 100 µM (inactive) in the assay with NCI-H23. Moreover, the GI50 in the assay with OVCAR-3, in the assay on OVCAR-5, in the assay with SF-295, with SK-MEL-28, in the assay on SNB-19 and in the assay with SW-620 was > 100 µM (inactive) throughout. The GI50 in the assay on TK-10, in the assay on U-251 and with UACC-62 was > 100 µM (inactive) in each case.
